# Laboratory results from patent US20240228490A1, “HETEROCYCLIC DERIVATIVE INHIBITOR AND PREPARATION METHOD THEREFOR AND APPLICATION THEREOF” (Shanghai Hansoh Biomedical Co., Ltd., priority 2021, published 2024).
# pIC50: −log10 of the molar value.
# Target: PARP1 enzyme (Homo sapiens (Human), UniProt P09874)
# Assay: Inhibitory activity on PARP1 enzyme (chemiluminescence)
# Format: biochemical
# Procedure: The inhibitory activity of the compounds on PARP1 enzyme was determined by the chemiluminescence method in the experiment. The experiment was carried out in a 384-well plate. Coating histones in a 384-well plate: 5×histone solution was diluted 5 folds with PBS, added to a 384-well ELISA plate (25 μL per well), and incubated at 4° C. overnight. […] A mixture of PARP reaction biotin-labeled substrate, activated DNA, 10×PARP buffer and water was added (12.5 μL per well). Compound solutions with different concentrations were formulated using the experimental buffer (10% DMSO aqueous solution containing 1.25 mM DTT). The final detection concentration started from 100 nM, with 3-fold dilution and 8 concentrations. The compound solutions were added to the reaction wells of the 384-well plate (2.5 μL per well). 2.5 μL of 10% DMSO aqueous solution containing 1.25 mM DTT was added to the positive control well and blank well (2.5 μL per well). […] The plate was centrifuged at 1000 rpm for 1 minute, and reacted at room temperature for 60 minutes. […] Streptavidin-HRP solution diluted 50 folds with Blocking buffer 3 was added (25 μL per well), and the plate was incubated at room temperature for 30 minutes. […] The luminescence reaction solution obtained by mixing ECL substrate A and ELISA ECL substrate B (1:1) was added (50 μL per well) for reaction. The chemiluminescence values were measured immediately with a BioTek Synergy H1 or Envision instrument.
# The chemiluminescence values were measured with a BioTek Synergy H1 or Envision instrument. The inhibition rate was calculated, and the concentration and inhibition rate were fitted to a nonlinear regression curve using Graphpad Prism software to obtain the IC50 value.
# Sequence of PARP1 enzyme (P09874 whole entry): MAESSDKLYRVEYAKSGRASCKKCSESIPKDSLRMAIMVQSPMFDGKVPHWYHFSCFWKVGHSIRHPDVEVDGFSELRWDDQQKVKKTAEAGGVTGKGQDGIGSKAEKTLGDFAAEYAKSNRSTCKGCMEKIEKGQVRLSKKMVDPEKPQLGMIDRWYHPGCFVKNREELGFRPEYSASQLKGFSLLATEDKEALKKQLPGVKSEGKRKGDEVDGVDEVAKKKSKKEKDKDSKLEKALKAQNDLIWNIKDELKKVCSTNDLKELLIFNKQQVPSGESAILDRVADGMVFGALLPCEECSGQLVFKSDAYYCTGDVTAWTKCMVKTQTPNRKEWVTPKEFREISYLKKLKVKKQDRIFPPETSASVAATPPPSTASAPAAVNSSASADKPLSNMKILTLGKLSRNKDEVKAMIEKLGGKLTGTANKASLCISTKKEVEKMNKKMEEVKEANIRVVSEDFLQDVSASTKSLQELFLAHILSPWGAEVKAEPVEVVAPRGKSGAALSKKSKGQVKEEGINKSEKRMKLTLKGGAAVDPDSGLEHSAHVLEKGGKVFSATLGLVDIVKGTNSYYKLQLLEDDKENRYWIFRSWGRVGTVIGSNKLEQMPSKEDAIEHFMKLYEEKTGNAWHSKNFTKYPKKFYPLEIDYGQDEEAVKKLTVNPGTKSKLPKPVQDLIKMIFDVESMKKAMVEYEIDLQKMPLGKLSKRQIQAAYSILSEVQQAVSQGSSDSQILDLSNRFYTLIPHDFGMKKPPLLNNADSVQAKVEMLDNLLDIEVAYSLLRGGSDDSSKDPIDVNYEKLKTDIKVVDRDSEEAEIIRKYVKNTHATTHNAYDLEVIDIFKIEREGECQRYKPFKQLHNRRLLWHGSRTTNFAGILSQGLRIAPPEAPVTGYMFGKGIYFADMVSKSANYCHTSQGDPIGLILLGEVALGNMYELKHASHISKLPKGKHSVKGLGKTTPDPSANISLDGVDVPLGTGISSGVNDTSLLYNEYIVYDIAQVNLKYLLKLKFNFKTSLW
row,Compound,pIC50
1,"CCc1cc2ncc(CN3CCN(c4ccc5c(c4)CN(C)C5=O)CC3)cc2[nH]c1=O [Example 6, 3-Ethyl-7-((4-(2-methyl-1-oxoisoindolin-5-yl)piperazin-1-yl)methyl)-1,5-naphthyridin-2(1H)-one]",8.54
2,"CCc1cc2ncc(CN3CCN(c4ccc5c(c4)CNC5=O)CC3)cc2[nH]c1=O [Example 17, 3-Ethyl-7-((4-(1-oxoisoindolin-5-yl)piperazin-1-yl)methyl)-1,5-naphthyridin-2(1H)-one]",8.35
3,"CCc1cc2ncc(CN3CCN(c4cnc5[nH]ccc5c4)CC3)cc2[nH]c1=O [Example 23, 7-((4-(1H-Pyrrolo[2,3-b]pyridin-5-yl)piperazin-1-yl)methyl)-3-ethyl-1,5-naphthyridin-2(1H)-one]",8.48
4,"CCc1cc2ncc(CN3CCN(c4ccc5nc(C)[nH]c5c4)CC3)cc2[nH]c1=O [Example 24, 3-Ethyl-7-((4-(2-methyl-1H-benzo[d]imidazol-6-yl)piperazin-1-yl)methyl)-1,5-naphthyridin-2(1H)-one]",8.77
5,"CCc1cc2ncc(CN3CC=C(c4ccc(C(=O)N[C@H]5CCOC5)nc4)CC3)cc2[nH]c1=O [Example 31, (S)-1′-((7-Ethyl-6-oxo-5,6-dihydro-1,5-naphthyridin-3-yl)methyl)-N-(tetrahydrofuran-3-yl)-1′,2′,3′,6′-tetrahydro-[3,4′-bipyridine]-6-carboxamide]",9.00
6,"CCc1cc2ncc(CN3CC=C(c4ccc(C(=O)N[C@@H]5CCOC5)nc4)CC3)cc2[nH]c1=O [Example 32, (R)-1′-((7-Ethyl-6-oxo-5,6-dihydro-1,5-naphthyridin-3-yl)methyl)-N-(tetrahydrofuran-3-yl)-1′,2′,3′,6′-tetrahydro-[3,4′-bipyridine]-6-carboxamide]",9.00
7,"CCc1cc2ncc(CN3CC=C(c4ccc(C(=O)NC)c(F)c4)CC3)cc2[nH]c1=O [Example 33, 4-(1-((7-Ethyl-6-oxo-5,6-dihydro-1,5-naphthyridin-3-yl)methyl)-1,2,3,6-tetrahydropyridin-4-yl)-2-fluoro-N-methylbenzamide]",9.04
8,"CCc1cc2ncc(CN3CC=C(c4ccc(C(=O)NC)nc4OC)CC3)cc2[nH]c1=O [Example 34, 1′-((7-Ethyl-6-oxo-5,6-dihydro-1,5-naphthyridin-3-yl)methyl)-2-methoxy-N-methyl-1′,2′,3′,6′-tetrahydro-[3,4′-bipyridine]-6-carboxamide]",8.80
9,"CCc1cc2ncc(CN3CC=C(c4ccc(C(=O)NC#N)nc4)CC3)cc2[nH]c1=O [Example 57, N-Cyano-1′-((7-ethyl-6-oxo-5,6-dihydro-1,5-naphthyridin-3-yl)methyl)-1′,2′,3′,6′-tetrahydro-[3,4′-bipyridine]-6-carboxamide]",8.55
10,"CCc1cc2ncc(CN3CC=C(c4ccc(C(=O)NC)c(F)c4Cl)CC3)cc2[nH]c1=O [Example 65, 3-Chloro-4-(1-((7-ethyl-6-oxo-5,6-dihydro-1,5-naphthyridin-3-yl)methyl)-1,2,3,6-tetrahydropyridin-4-yl)-2-fluoro-N-methylbenzamide]",8.66
11,"CCc1cc2ncc(CN3CC=C(c4ccc(C(=O)NC)c(F)c4C)CC3)cc2[nH]c1=O [Example 66, 4-(1-((7-Ethyl-6-oxo-5,6-dihydro-1,5-naphthyridin-3-yl)methyl)-1,2,3,6-tetrahydropyridin-4-yl)-2-fluoro-N,3-dimethylbenzamide]",8.77
12,"CCc1cc2ncc(CN3CC=C(c4ccc(C(=O)NC)c(F)c4F)CC3)cc2[nH]c1=O [Example 67, 4-(1-((7-Ethyl-6-oxo-5,6-dihydro-1,5-naphthyridin-3-yl)methyl)-1,2,3,6-tetrahydropyridin-4-yl)-2,3-difluoro-N-methylbenzamide]",8.68
13,"CCc1cc2ncc(CN3CCN(c4ccc5c(c4)C(=O)N(C)C5=O)CC3)cc2[nH]c1=O [Example 79, 5-(4-((7-Ethyl-6-oxo-5,6-dihydro-1,5-naphthyridin-3-yl)methyl)piperazin-1-yl)-2-methylisoindoline-1,3-dione]",8.48
14,"CCc1cc2ncc(CN3CCN(c4ccc5c(C(=O)NC)ncn5c4)CC3)cc2[nH]c1=O [Example 80, 6-(4-((7-Ethyl-6-oxo-5,6-dihydro-1,5-naphthyridin-3-yl)methyl)piperazin-1-yl)-N-methylimidazo[1,5-a]pyridine-1-carboxamide]",8.30
15,"CCC1Oc2ncc(CN3CC=C(c4ccc(C(=O)NC)nc4Cl)CC3)cc2NC1=O (centres unmarked) [Example 85, 2-Chloro-1′-((3-ethyl-2-oxo-2,3-dihydro-1H-pyrido[2,3-b][1,4]oxazin-7-yl)methyl)-N-methyl-1′,2′,3′,6′-tetrahydro-[3,4′-bipyridine]-6-carboxamide]",8.46
16,"CCC1Oc2ncc(CN3CC=C(c4ccc(C(=O)NC)nc4C)CC3)cc2NC1=O (centres unmarked) [Example 86, 1′-((3-Ethyl-2-oxo-2,3-dihydro-1H-pyrido[2,3-b][1,4]oxazin-7-yl)methyl)-N,2-dimethyl-1′,2′,3′,6′-tetrahydro-[3,4′-bipyridine]-6-carboxamide]",8.29
17,"CCC1Oc2ccc(CN3CC=C(c4ccc(C(=O)NC)nc4Cl)CC3)cc2NC1=O (centres unmarked) [Example 87, 2-Chloro-1′-((2-ethyl-3-oxo-3,4-dihydro-2H-benzo[b][1,4]oxazin-6-yl)methyl)-N-methyl-1′,2′,3′,6′-tetrahydro-[3,4′-bipyridine]-6-carboxamide]",8.31
18,"CCC1Oc2ccc(CN3CC=C(c4ccc(C(=O)NC)nc4C)CC3)cc2NC1=O (centres unmarked) [Example 88, 1′-((2-Ethyl-3-oxo-3,4-dihydro-2H-benzo[b][1,4]oxazin-6-yl)methyl)-N,2-dimethyl-1′,2′,3′,6′-tetrahydro-[3,4′-bipyridine]-6-carboxamide]",8.30
19,"CCC1Oc2ncc(CN3CC=C(c4ccc(C(=O)NC)nc4F)CC3)cc2NC1=O (centres unmarked) [Example 90, 1′-((3-Ethyl-2-oxo-2,3-dihydro-1H-pyrido[2,3-b][1,4]oxazin-7-yl)methyl)-2-fluoro-N-methyl-1′,2′,3′,6′-tetrahydro-[3,4′-bipyridine]-6-carboxamide]",8.57
20,"CCn1c(=O)[nH]c2cc(CN3CC=C(c4ccc(C(=O)NC)nc4F)CC3)ccc2c1=O [Example 91, 1′-((3-Ethyl-2,4-dioxo-1,2,3,4-tetrahydroquinazolin-7-yl)methyl)-2-fluoro-N-methyl-1′,2′,3′,6′-tetrahydro-[3,4′-bipyridine]-6-carboxamide]",8.52
